Columns and labels:
Assay type in all cases: in vivo, human
[1] = test system: prolactin (systemic marker of GPER activity); test: Prolactin induction in blood of patients after LNS8801 dosing, versus best RECIST response
Description: Blood was collected from patients pre-dose and at 0.5, 1, 2, 4, 7, and 10 hours after dosing and analyzed for the concentration of prolactin. Prolactin induction was calculated by dividing the average of the 4 hour through 10 hour timepoints by the average of pre-dose to 2 hour timepoints. Prolactin-induction was plotted with the best RECIST response of target lesions, and linear regression was performed.
Blood was collected from patients pre-dose and 0.5, 1, 2, 4, 7, and 10 hours after dosing and analyzed for the concentration of prolactin (PRLX). Prolactin induction was calculated by dividing the average of the 4 hour through 10 hour timepoints by the average of pre-dose to 2 hour timepoints.

[2] = LNS8801 pharmacokinetics in patients with advanced cancer (plasma concentration by mass spectrometry)
Description: Patients with advanced cancer were dosed with 10, 40, and 125 mg of LNS8801 in a capsule on three consecutive days/week. Blood was collected from patients pre-dose and at 0.5, 1, 2, 4, 7, 10, and 24 hours after dosing. Samples were analyzed by mass spectrometry for the concentration of LNS8801. […] LNS8801 is well absorbed, producing plasma exposures that are predicted to be efficacious, even at the lowest dose evaluated. Half-life in humans is approximately 10 hours.

[3] = test system: c-Myc positive tumor cells; test: c-Myc immunohistochemistry on pre- and on-treatment tumor biopsies; conditions: on-treatment biopsies 8-19 days after start vs pre-treatment; most samples
Excerpt: Pre-treatment biopsies were collected within 28 days of initiating treatment, and on-treatment biopsies were collected 8-19 days after LNS8801 treatment began. Tumor samples were formalin-fixed, paraffin-embedded, sectioned, and assessed for c-Myc positive tumor cells by immunohistochemistry by a blinded pathologist.

Absorption / plasma exposure ([2]; 10, 40, 125 mg capsule): well absorbed | half-life ([2]; human, plasma, oral, humans, 10, 40, 125 mg capsule, three consecutive days/week): ~10 h
SMILES: CC(=O)c1ccc2c(c1)[C@@H]1C=CC[C@@H]1[C@H](c1cc3c(cc1Br)OCO3)N2 [LNS8801, 1-((3aS,4R,9bR)-4-(6-bromobenzo[d][1,3]dioxol-5-yl)-3a,4,5,9b-tetrahydro-3H-cyclopenta[c]quinolin-8-yl)ethan-1-one]
Patients lacking a prolactin response (<1.25-fold induction) ([1]; evaluable patients, every such patient had progressive disease): 35% | Change in prolactin levels on treatment ([1]; patients with progressive disease under RECIST): reduction or no change in prolactin levels | Change in c-Myc positive tumor cells after treatment [3]: dramatic depletion in c-Myc positive tumor cells

From patent publication US20240245674A1, “DIAGNOSTIC METHODS AND COMPOSITIONS FOR TREATMENT OF CANCER” (LINNAEUS THERAPEUTICS, INC., priority 2021, published 2024)
